Laboratory results from ChEMBL document CHEMBL1201862, “PubChem BioAssay data set” (2004).
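Exposure lasted 48 hours, with cells grown in 96-well plates and compounds tested at five concentrations. GI50 marks 50% less growth.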 The source made the active and inactive calls. Cut-off read from the data, not from the text of the source: active = GI50 up to about 1.1 µM and inactive = higher.

Assays:
Assay in all cases: inhibition of tumour cell growth, NCI panel, 48 h
NCI-H23 = tested on: NCI-H23
EKVX = tested on: EKVX
NCI-H460 = tested on: NCI-H460
Malme-3M = tested on: Malme-3M
SK-OV-3 = tested on: SK-OV-3
COLO 205 = tested on: COLO 205
LOX IMVI = tested on: LOX IMVI
ACHN = tested on: ACHN
HT-29 = tested on: HT-29
HCC 2998 = tested on: HCC 2998
UO-31 = tested on: UO-31
A549 = tested on: A549
KM12 = tested on: KM12
K562 = tested on: K562
NCI-H522 = tested on: NCI-H522
CAKI-1 = tested on: CAKI-1
SW-620 = tested on: SW-620
SF-268 = tested on: SF-268
CCRF-CEM = tested on: CCRF-CEM
HL-60 = tested on: HL-60

Measured: GI50

CC(C)(C)c1c2c(c(C(C)(C)C)c3c1OCN(Cc1ccccc1)C3)OCN(Cc1ccccc1)C2
inactive: NCI-H23 12.9 µM | EKVX 12.7 µM | NCI-H460 15.1 µM | Malme-3M 18.7 µM | SK-OV-3 22.6 µM | COLO 205 13.7 µM | LOX IMVI 16.3 µM | ACHN 17.8 µM | HT-29 16.7 µM | HCC 2998 10.5 µM | UO-31 17.2 µM | A549 17.6 µM | KM12 21.3 µM | K562 17.6 µM | NCI-H522 10.9 µM | CAKI-1 33.2 µM | SW-620 24.5 µM | SF-268 16.2 µM | CCRF-CEM 28 µM

COc1cc(OC)c2ssc3c(OC)cc(OC)c4ssc1c2-c43
inactive: NCI-H23 > 100 µM | EKVX > 100 µM | NCI-H460 > 100 µM | Malme-3M > 100 µM | SK-OV-3 > 100 µM | COLO 205 > 100 µM | LOX IMVI > 100 µM | ACHN > 100 µM | HT-29 > 100 µM | HCC 2998 > 100 µM | A549 > 100 µM | KM12 > 100 µM | K562 > 100 µM | NCI-H522 > 100 µM | CAKI-1 > 100 µM | SW-620 > 100 µM | SF-268 > 100 µM | CCRF-CEM > 100 µM

O=C(Nc1ccc(Cl)cc1Cl)C1C(=O)N(c2ccc(Cl)cc2Cl)C(=O)/C1=N\Nc1ccc([N+](=O)[O-])cc1[N+](=O)[O-] (configuration not stated)
inactive: NCI-H23 23.9 µM | EKVX > 100 µM | NCI-H460 59.8 µM | Malme-3M 64 µM | HL-60 35.2 µM | SK-OV-3 > 100 µM | COLO 205 52.5 µM | ACHN 74.5 µM | HT-29 35.8 µM | HCC 2998 37.6 µM | UO-31 15.8 µM | A549 > 100 µM | KM12 34.5 µM | K562 14.7 µM | NCI-H522 21.5 µM | CAKI-1 54.5 µM | SW-620 > 100 µM | SF-268 22.3 µM | CCRF-CEM 23.1 µM

O=C(Nc1ccc(Cl)cc1Cl)C1C(=O)C(=O)N(c2ccc(Cl)cc2Cl)C1=O (configuration not stated)
inactive: NCI-H23 > 100 µM | EKVX > 100 µM | NCI-H460 > 100 µM | Malme-3M > 100 µM | HL-60 > 100 µM | SK-OV-3 > 100 µM | LOX IMVI > 100 µM | ACHN > 100 µM | HT-29 > 100 µM | HCC 2998 > 100 µM | UO-31 > 100 µM | A549 > 100 µM | KM12 > 100 µM | NCI-H522 > 100 µM | CAKI-1 > 100 µM | SW-620 > 100 µM | SF-268 > 100 µM

Cc1csc2nc3c(cnn3C)c(=S)n12
inactive: NCI-H23 > 100 µM | EKVX 14.9 µM | NCI-H460 > 100 µM | Malme-3M > 100 µM | SK-OV-3 61.8 µM | COLO 205 > 10 µM | LOX IMVI 51.6 µM | ACHN 44.5 µM | HT-29 84.5 µM | HCC 2998 > 100 µM | UO-31 33.5 µM | A549 > 100 µM | KM12 > 100 µM | K562 > 100 µM | NCI-H522 11 µM | CAKI-1 34.3 µM | SW-620 > 100 µM | SF-268 > 100 µM | CCRF-CEM 87.7 µM

CCc1nc(N)nc(N)c1-c1ccc2nnn(O)c2c1
inactive: NCI-H23 > 100 µM | EKVX > 100 µM | NCI-H460 > 72.8 µM | HL-60 > 100 µM | SK-OV-3 > 100 µM | COLO 205 > 100 µM | LOX IMVI > 100 µM | ACHN > 100 µM | HT-29 > 89.1 µM | HCC 2998 > 100 µM | UO-31 > 100 µM | A549 > 73.6 µM | KM12 > 100 µM | K562 76.2 µM | NCI-H522 > 100 µM | CAKI-1 > 100 µM | SW-620 > 100 µM | SF-268 > 100 µM | CCRF-CEM > 100 µM

CCOC(=O)c1nc2c3c(ncn2n1)Oc1c(c(-c2ccccc2)nn1-c1ccccc1)C3c1ccc(OC)c(OC)c1 (configuration not stated)
inactive: NCI-H23 > 100 µM | EKVX 50.4 µM | NCI-H460 22.3 µM | Malme-3M > 100 µM | SK-OV-3 92.9 µM | COLO 205 > 100 µM | LOX IMVI > 100 µM | ACHN 47 µM | HT-29 > 100 µM | HCC 2998 > 100 µM | UO-31 > 100 µM | A549 59.2 µM | KM12 > 10 µM | K562 7.24 µM | NCI-H522 > 100 µM | CAKI-1 50.1 µM | SW-620 > 100 µM | SF-268 15.3 µM | CCRF-CEM > 100 µM

COc1ccc2c(c1)C1Oc3ccccc3CC1(O)CO2 (configuration not stated)
inactive: NCI-H23 > 100 µM | EKVX > 100 µM | Malme-3M > 100 µM | SK-OV-3 > 100 µM | COLO 205 > 100 µM | LOX IMVI > 100 µM | ACHN > 100 µM | HT-29 > 100 µM | HCC 2998 > 100 µM | UO-31 > 100 µM | A549 > 100 µM | KM12 > 100 µM | K562 > 100 µM | NCI-H522 > 100 µM | CAKI-1 > 100 µM | SW-620 > 100 µM | SF-268 > 100 µM | CCRF-CEM > 100 µM

CN1C(=O)c2ccc3ccccc3c2C1=O
inactive: NCI-H23 > 100 µM | EKVX 14 µM | NCI-H460 > 100 µM | HL-60 28.1 µM | SK-OV-3 > 100 µM | COLO 205 > 100 µM | ACHN > 100 µM | HT-29 > 100 µM | HCC 2998 > 100 µM | UO-31 > 100 µM | A549 > 100 µM | KM12 > 100 µM | K562 > 100 µM | NCI-H522 86.1 µM | CAKI-1 > 100 µM | SW-620 > 100 µM | SF-268 > 100 µM | CCRF-CEM > 100 µM

O=C(O)C(Cc1ccccc1)N1C(=O)N/C(=C\c2ccc(F)cc2)C1=O (configuration not stated)
inactive: NCI-H23 > 100 µM | EKVX > 100 µM | NCI-H460 > 100 µM | HL-60 > 100 µM | SK-OV-3 > 100 µM | COLO 205 > 100 µM | LOX IMVI > 100 µM | ACHN > 100 µM | HT-29 > 100 µM | HCC 2998 > 100 µM | UO-31 > 100 µM | A549 > 100 µM | KM12 > 100 µM | K562 > 100 µM | NCI-H522 > 100 µM | CAKI-1 > 100 µM | SW-620 > 100 µM | CCRF-CEM > 100 µM

CN(C)CC[N+](C)(C)[BH2-]C(O)O
inactive: NCI-H23 > 100 µM | EKVX > 100 µM | NCI-H460 > 100 µM | HL-60 > 100 µM | COLO 205 > 100 µM | LOX IMVI > 100 µM | ACHN > 100 µM | HT-29 > 100 µM | HCC 2998 > 100 µM | UO-31 > 100 µM | A549 > 100 µM | KM12 > 100 µM | K562 > 100 µM | NCI-H522 > 100 µM | CAKI-1 > 100 µM | SW-620 > 100 µM | SF-268 > 100 µM | CCRF-CEM > 100 µM
